Results taken from patent US11155558B2, “Dual mode of action soluble guanylate cyclase activators and phosphodiesterase inhibitors and uses thereof” (TOPADUR PHARMA AG, priority 2017, dated 2021).

Experiments:
[1] = tested on: Human Pulmonary Artery Smooth Muscle Cells (hPASMC); test: Measurements of cGMP in human pulmonary artery smooth muscle cells (hPASMC); assay type: cell-based; conditions: 30 min incubation, 0.1 pM-1 uM, compared to sildenafil, mirodenafil or compound 5 (FIG. 3)
Experimental: Human Pulmonary Artery Smooth Muscle Cells (hPASMC) were purchased from Clonetics™ Lonza (Lonza, reference number CC-2581) and cultured in Clonetics™ smooth muscle growth medium (Clonetics™ SmGM™-2 with BulletKit™ growth factor supplements (Lonza, reference number CC-3182) at 37° C. in 5% CO2. Culture medium was replaced each 48 hours. Cells were grown in 75 cm^2 culture plates. 48 h before the experiments, cells were trypsinized (Trypsin kit One ReagentPack™ (CC-5034), Lonza) and plated in 96 well plates precoated with collagen I at 10000 cells per well. 24 h before the experiments culture medium was replaced by serum-reduced (0.5% FBS) medium. […]
Measurements of intracellular cGMP were performed using the Amersham cGMP EIA System (GE Healthcare, RPN226) following the instructions of the manufacturer. […] Briefly, incubations were terminated by adding Amersham's lysis buffer 1 and cells left for 10 min under agitation to ensure complete lysis. cGMP in samples was then acetylated using triethylamine and acetic anhydride and determined by a competitive ELISA. The ELISA is based on the competition between acetylated cGMP in cell culture lysates and a peroxidase-labelled cGMP conjugate for limited binding sites on a cGMP specific antiserum immobilized on pre-coated 96 well MTP. cGMP was determined based on a standard curve. […]

[2] = biological target: PDE5 enzyme isolated from human platelets (Homo sapiens (Human), UniProt O76074); test: PDE5 assay (Example 109), formation of 5′GMP from cGMP, SPA; conditions: for % inhibition at 5.0E−09 M: percent inhibition of control enzyme activity at 5.0E−09 M, assay of Example 109;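 for all read-outs here: tritiated 5′GMP counted by scintillation after SPA bead capture, enzyme reaction run 60 min at 22 °C, basal control is the mixture without enzyme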
Experimental: Evaluation of the effects of compounds of the present invention on the activity of the human phosphodiesterase-5 quantified by measuring the formation of 5′GMP from cGMP using PDE5 enzyme isolated from human platelets.
Thereafter, the reaction is initiated by addition of the enzyme and the mixture is incubated for 60 min at 22° C.
For basal control measurements, the enzyme is omitted from the reaction mixture. Following incubation SPA beads are added. After 20 min at 22° C. under shaking, the amount of [3H]5′GMP is quantified with a scintillation counter (Topcount, Packard).
The standard inhibitory reference compound is dipyridamole, which is tested in each experiment at several concentrations to obtain an inhibition curve from which its IC50 value is calculated.

[3] = Measurements of human plasma protein binding; assay type: in vitro ADME
Experimental: An aliquot of 200 μL of human plasma containing test compound was spiked into donor well (red chamber) of the insert. 350 μL of PBS was spiked into receiver well (white chamber) of the insert.
The samples were matrix equilibrated with opposite matrix (25 μL of plasma/buffer sample was matched with 25 μL of blank buffer/plasma). Matrix matched samples were precipitated with 200 μL of acetonitrile containing internal standard. Samples were vortexed at 1000 rpm for 5 min and centrifuged at 4000 rpm for 10 min. Supernatant was separated, diluted 2 fold with water and analysed in LC-MS/MS. TO control samples were processed immediately after the preparation of plasma working stock solutions. These samples serves as a measure for calculating the percentage recovery of test compounds.

## CCCOc1ccc(S(=O)(=O)N2CCC(CCO[N+](=O)[O-])CC2)cc1-c1nc2c(CCC)cn(CC)c2c(=O)[nH]1 [Compound 1b, 2-(1-((3-(5-ethyl-4-oxo-7-propyl-4,5-dihydro-3H-pyrrolo[3,2-d]pyrimidin-2-yl)-4-propoxyphenyl)sulfonyl)piperidin-4-yl)ethyl nitrate]
[1]
  efficacy in increasing intracellular cGMP level: significantly higher efficacy in increasing cGMP level
[2]
  IC50: > 10 nM
  % inhibition at 5.0E−09 M: 12.4%
[3]
  % Bound in Plasma: 99.95%
  fraction unbound: 0.0005
[3]; human
  recovery: 100%

## CCCOc1ccc(S(=O)(=O)N2CCN(CCO[N+](=O)[O-])CC2)cc1-c1nc2c(CCC)cn(CC)c2c(=O)[nH]1 [Compound 1i, 2-(4-((3-(5-ethyl-4-oxo-7-propyl-4,5-dihydro-3H-pyrrolo[3,2-d]pyrimidin-2-yl)-4-propoxyphenyl)sulfonyl)piperazin-1-yl)ethyl nitrate]
[1]
  efficacy in increasing intracellular cGMP level: significantly higher efficacy in increasing cGMP level
[2]
  IC50: 2 nM
  % inhibition at 5.0E−09 M: 60.0%
